Test results published in ChEMBL document CHEMBL1201862, “PubChem BioAssay data set” (2004).
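Each compound was tested at five concentrations against cells in 96-well plates for 48 hours. GI50: concentration for 50% inhibition of growth.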 Activity calls are given as the source filed them. No stated cut-off is given here; in the data, active = GI50 up to about 1.1 µM and inactive = higher. Starred links: 1 amine or outer side, 2 acyl side, 3 side chain; linkers in the order of their positions; H or OH if unused. Positions of bridges follow the written chain, without caps; N, C: chain ends. Non-standard residues stand in square brackets, D forms with d. Residues, ends and D or L forms follow the SMILES beside them. *: point of attachment. X40 = CC[C@H](C)[C@@H](N[*:1])[C@@H](O)CC(=O)[*:2]; NMeY = CN[C@@H](Cc1ccc(O)cc1)C(=O)O; dNMeL = CN[C@H](CC(C)C)C(=O)O; Hiv = CC(C)[C@H](O)C(=O)O; Pyruvoyl = CC(=O)C(=O)*

Assays:
Experiment in all cases: growth of human tumour cells (NCI), 48 h
Malme-3M = test system: Malme-3M
SN12C = test system: SN12C
U-251 = test system: U-251
HOP-62 = test system: HOP-62
TK-10 = test system: TK-10
NCI/ADR-RES = test system: NCI/ADR-RES
SR = test system: SR
CAKI-1 = test system: CAKI-1
HT-29 = test system: HT-29
MDA-N = test system: MDA-N
OVCAR-5 = test system: OVCAR-5
NCI-H226 = test system: NCI-H226
HOP-92 = test system: HOP-92
A549 = test system: A549
PC-3 = test system: PC-3
Hs-578T = test system: Hs-578T
KM12 = test system: KM12
LOX IMVI = test system: LOX IMVI
RPMI-8226 = test system: RPMI-8226
CCRF-CEM = test system: CCRF-CEM

SMILES	GI50 (Malme-3M)	GI50 (SN12C)	GI50 (U-251)	GI50 (HOP-62)	GI50 (TK-10)	GI50 (NCI/ADR-RES)	GI50 (SR)	GI50 (CAKI-1)	GI50 (HT-29)	GI50 (MDA-N)	GI50 (OVCAR-5)	GI50 (NCI-H226)	GI50 (HOP-92)	GI50 (A549)	GI50 (PC-3)	GI50 (Hs-578T)	GI50 (KM12)	GI50 (LOX IMVI)	GI50 (RPMI-8226)	GI50 (CCRF-CEM)
CCCCCCCCCCCCCCCCCCNC(=S)NC=C1C(=O)c2ccccc2C1=O	14.7 µM (inactive)	16 µM (inactive)	4.73 µM (inactive)	9.86 µM (inactive)	16.6 µM (inactive)	14.2 µM (inactive)	2.75 µM (inactive)	15.5 µM (inactive)	11.5 µM (inactive)	16 µM (inactive)	13.4 µM (inactive)	8.32 µM (inactive)	3 µM (inactive)	13.2 µM (inactive)	3.83 µM (inactive)	16.3 µM (inactive)	10.7 µM (inactive)	3.9 µM (inactive)	14.2 µM (inactive)	5.02 µM (inactive)
CCCC(=O)OCC1OC(n2cc(F)c(=O)[nH]c2=O)C(F)C1OC(=O)CCC (stereo not given)	36.6 µM (inactive)	19.2 µM (inactive)	10.9 µM (inactive)	4.11 µM (inactive)	49.3 µM (inactive)	7.48 µM (inactive)	9.73 µM (inactive)	23.1 µM (inactive)	45.4 µM (inactive)	> 100 µM (inactive)	96.6 µM (inactive)	> 100 µM (inactive)	17.4 µM (inactive)	10.1 µM (inactive)	> 100 µM (inactive)	26.5 µM (inactive)	> 100 µM (inactive)	47.8 µM (inactive)	9.31 µM (inactive)	7.64 µM (inactive)
NC(=O)CC(Nc1ncc2c(n1)-c1ccccc1OC2)C(=O)O (stereo not given)	92 µM (inactive)	> 100 µM (inactive)	> 100 µM (inactive)	> 100 µM (inactive)	> 100 µM (inactive)	> 100 µM (inactive)	> 100 µM (inactive)	43.1 µM (inactive)	64.3 µM (inactive)	> 100 µM (inactive)	> 100 µM (inactive)	71.1 µM (inactive)	> 100 µM (inactive)	> 100 µM (inactive)	> 100 µM (inactive)	> 100 µM (inactive)	> 100 µM (inactive)	> 100 µM (inactive)	26 µM (inactive)	> 100 µM (inactive)
CC[C@H](C)[C@H]1NC(=O)[C@@H](NC(=O)[C@@H](CC(C)C)N(C)C(=O)[C@@H]2CCCN2C(=O)C(C)=O)[C@@H](C)OC(=O)[C@H](Cc2ccc(OC)cc2)N(C)C(=O)[C@@H]2CCCN2C(=O)[C@H](CC(C)C)NC(=O)[C@H](C(C)C)OC(=O)C[C@@H]1O (Pyruvoyl-P[dNMeL]T[X40][Hiv]LP[NMeY](Me); ester 3-C)	0.00538 µM (active)	0.0043 µM (active)	0.00239 µM (active)	0.0046 µM (active)	0.00838 µM (active)	0.226 µM (active)	0.001 µM (active)	0.0581 µM (active)	0.00434 µM (active)	0.00467 µM (active)	0.00632 µM (active)	0.0159 µM (active)	0.0302 µM (active)	0.00454 µM (active)	0.0046 µM (active)	0.00476 µM (active)	0.00148 µM (active)	0.00428 µM (active)	0.00545 µM (active)	0.00224 µM (active)
